Activity calls are given as the source filed them. The rule behind the calls is not given here.
How the values were obtained:
Tyrosinase [1] = target: T1, Tyrosinase (Agaricus bisporus, UniProt O42713); test: Inhibition of mushroom tyrosinase using L-DOPA as substrate
T1 sequence (O42713 whole entry): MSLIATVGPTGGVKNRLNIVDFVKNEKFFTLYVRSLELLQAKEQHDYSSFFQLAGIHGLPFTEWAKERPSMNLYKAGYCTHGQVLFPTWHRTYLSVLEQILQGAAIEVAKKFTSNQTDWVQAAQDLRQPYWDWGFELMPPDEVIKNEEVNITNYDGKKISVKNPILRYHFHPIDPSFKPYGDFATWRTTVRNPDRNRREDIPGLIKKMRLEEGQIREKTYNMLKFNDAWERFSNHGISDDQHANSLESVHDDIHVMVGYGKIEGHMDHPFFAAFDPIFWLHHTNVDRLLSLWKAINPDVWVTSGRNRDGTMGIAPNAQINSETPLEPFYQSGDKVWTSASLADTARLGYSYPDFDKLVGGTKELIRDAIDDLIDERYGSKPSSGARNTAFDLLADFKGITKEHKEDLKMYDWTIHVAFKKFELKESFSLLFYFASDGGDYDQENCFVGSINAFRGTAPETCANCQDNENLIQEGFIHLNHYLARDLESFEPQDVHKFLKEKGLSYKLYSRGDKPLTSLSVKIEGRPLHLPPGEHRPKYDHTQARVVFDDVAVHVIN

[2] = Cytotoxicity against mouse B16-F10 cells assessed as cell viability at 50 ug/ml measured after 24 hrs by MTT assay relative to control; type: cell-based; conditions: at 50 µg/mL, read-out: Activity
B16-F10 [3] = test: Cytotoxicity against mouse B16-F10 cells assessed as reduction in cell viability at 10 to 50 ug/ml measured after 24 hrs by MTT assay; type: cell-based; conditions: b16-f10, 24 h, dose 10-50 µg/ml
B16-F10 [4] = test: Cytotoxicity against mouse B16-F10 cells assessed as reduction in cell viability upto 10 ug/ml measured after 24 hrs by MTT assay; type: cell-based; conditions: b16-f10, 24 h, dose <=10 µg/ml
B16-F10 [5] = test: Anti-melanogenic activity in mouse B16-F10 cells assessed as reduction in alpha-MSH-induced tyrosinase expression at 10 uM incubated for 24 hrs by Western blot analysis; type: functional, cell-based
B16-F10 [6] = test: Anti-melanogenic activity against alpha-MSH-induced mouse B16-F10 cells assessed as reduction in melanin content at 50 uM incubated for 24 hrs […] relative to control; type: functional
B16-F10 [7] = test: Anti-melanogenic activity against alpha-MSH-induced mouse B16-F10 cells assessed as reduction in melanin content at 20 uM incubated for 24 hrs […] relative to control; type: functional
B16-F10 [8] = test: Anti-melanogenic activity in mouse B16-F10 cells assessed as reduction in alpha-MSH-induced tyrosinase expression at 50 uM incubated for 24 hrs by Western blot analysis; type: functional, cell-based
Tyrosinase [9] = target: T1, Tyrosinase; test: Noncompetitive inhibition of mushroom tyrosinase assessed as dissociation constant using L-DOPA as substrate by Lineweaver-Burk plot analysis
B16-F10 [10] = test: Anti-melanogenic activity in mouse B16-F10 cells assessed as reduction in alpha-MSH-induced tyrosinase expression at 20 to 30 uM incubated for 24 hrs by Western blot analysis; type: functional, cell-based; conditions: dose 20-30 µM
B16-F10 [11] = test: Anti-melanogenic activity against alpha-MSH-induced mouse B16-F10 cells assessed as reduction in melanin content at 10 uM incubated for 24 hrs […] relative to control; type: functional
B16-F10 [12] = test: Anti-melanogenic activity against alpha-MSH-induced mouse B16-F10 cells assessed as reduction in melanin content at 30 uM incubated for 24 hrs […] relative to control; type: functional
[13] = compound: COc1ccccc1-c1nnc(SCC(=O)Nc2ccccc2)o1; test: Noncompetitive inhibition of mushroom tyrosinase assessed as Km at 0.0066 uM using L-DOPA as substrate by Lineweaver-Burk plot analysis; conditions: Agaricus bisporus
[14] = compound: COc1ccccc1-c1nnc(SCC(=O)Nc2ccccc2)o1; test: Noncompetitive inhibition of mushroom tyrosinase assessed as Vmax at 0.0066 uM using L-DOPA as substrate by Lineweaver-Burk plot analysis; conditions: Agaricus bisporus
[15] = compound: COc1ccccc1-c1nnc(SCC(=O)Nc2ccccc2)o1; test: Noncompetitive inhibition of mushroom tyrosinase assessed as Km at 0.0033 uM using L-DOPA as substrate by Lineweaver-Burk plot analysis; conditions: Agaricus bisporus
[16] = compound: COc1ccccc1-c1nnc(SCC(=O)Nc2ccccc2)o1; test: Noncompetitive inhibition of mushroom tyrosinase assessed as Km at 0.0017 uM using L-DOPA as substrate by Lineweaver-Burk plot analysis; conditions: Agaricus bisporus
[17] = compound: COc1ccccc1-c1nnc(SCC(=O)Nc2ccccc2)o1; test: Noncompetitive inhibition of mushroom tyrosinase assessed as Vmax at 0.0033 uM using L-DOPA as substrate by Lineweaver-Burk plot analysis; conditions: Agaricus bisporus
[18] = compound: COc1ccccc1-c1nnc(SCC(=O)Nc2ccccc2)o1; test: Noncompetitive inhibition of mushroom tyrosinase assessed as Vmax at 0.0017 uM using L-DOPA as substrate by Lineweaver-Burk plot analysis; conditions: Agaricus bisporus

Molecule: O=C(CSc1nnc(-c2ccccc2)o1)Nc1ccccc1
- IC50 (Tyrosinase [1]): 231 nM

Molecule: COc1cccc(-c2nnc(SCC(=O)Nc3ccc(I)cc3)o2)c1
- IC50 (Tyrosinase [1]): 88 nM

Molecule: COc1cccc(-c2nnc(SCC(=O)Nc3ccc(Br)cc3)o2)c1
- IC50 (Tyrosinase [1]): 145 nM

Molecule: COc1ccccc1-c1nnc(SCC(=O)Nc2ccc(I)cc2)o1
- viability at 24 h, 50 ug/ml [2]: 80%
- IC50 (Tyrosinase [1]): 23 nM

Molecule: COc1cccc(-c2nnc(SCC(=O)Nc3ccccc3)o2)c1
- Activity (B16-F10 [3]): Toxic
- Activity (B16-F10 [4]): Non-Toxic
- IC50 (Tyrosinase [1]): 19 nM

Molecule: COc1ccccc1-c1nnc(SCC(=O)Nc2ccccc2)o1
- Activity (B16-F10 [5]): Active
- inhibition at 50 µM (B16-F10 [6]): 78%
- inhibition at 20 µM (B16-F10 [7]): 62%
- Activity (B16-F10 [8]): Active
- Ki (Tyrosinase [9]): 3.1 nM
- Activity (B16-F10 [10]): Active
- viability at 24 h, 50 ug/ml [2]: 80%
- inhibition at 10 µM (B16-F10 [11]): 16%
- inhibition at 30 µM (B16-F10 [12]): 77%
- IC50 (Tyrosinase [1]): 3 nM

Molecule: COc1ccccc1-c1nnc(SCC(=O)Nc2ccc(Br)cc2)o1
- IC50 (Tyrosinase [1]): 46 nM

Molecule: COc1cccc(-c2nnc(SCC(=O)Nc3ccc(F)cc3)o2)c1
- Activity (B16-F10 [3]): Toxic
- Activity (B16-F10 [4]): Non-Toxic
- IC50 (Tyrosinase [1]): 27 nM

Molecule: O=C(CSc1nnc(-c2ccccc2)o1)Nc1ccc(I)cc1
- IC50 (Tyrosinase [1]): 85 nM

Molecule: O=C(CSc1nnc(-c2ccccc2)o1)Nc1ccc(F)cc1
- IC50 (Tyrosinase [1]): 396 nM

Molecule: COc1ccccc1-c1nnc(SCC(=O)Nc2ccc(F)cc2)o1
- viability at 24 h, 50 ug/ml [2]: 80%
- IC50 (Tyrosinase [1]): 18 nM

Molecule: O=C(CSc1nnc(-c2ccccc2)o1)Nc1ccc(Br)cc1
- IC50 (Tyrosinase [1]): 39 nM

B1: Tyrosinase (Agaricus bisporus), O42713 (protein)
chain: MSLIATVGPTGGVKNRLNIVDFVKNEKFFTLYVRSLELLQAKEQHDYSSFFQLAGIHGLPFTEWAKERPSMNLYKAGYCTHGQVLFPTWHRTYLSVLEQILQGAAIEVAKKFTSNQTDWVQAAQDLRQPYWDWGFELMPPDEVIKNEEVNITNYDGKKISVKNPILRYHFHPIDPSFKPYGDFATWRTTVRNPDRNRREDIPGLIKKMRLEEGQIREKTYNMLKFNDAWERFSNHGISDDQHANSLESVHDDIHVMVGYGKIEGHMDHPFFAAFDPIFWLHHTNVDRLLSLWKAINPDVWVTSGRNRDGTMGIAPNAQINSETPLEPFYQSGDKVWTSASLADTARLGYSYPDFDKLVGGTKELIRDAIDDLIDERYGSKPSSGARNTAFDLLADFKGITKEHKEDLKMYDWTIHVAFKKFELKESFSLLFYFASDGGDYDQENCFVGSINAFRGTAPETCANCQDNENLIQEGFIHLNHYLARDLESFEPQDVHKFLKEKGLSYKLYSRGDKPLTSLSVKIEGRPLHLPPGEHRPKYDHTQARVVFDDVAVHVIN
- Km [13]: 250 µM
- Vmax [14]: 2.27 deltaA/s
- Km [15]: 250 µM
- Km [16]: 250 µM
- Vmax [17]: 3.64 deltaA/s
- Vmax [18]: 4.97 deltaA/s
